The text below walks through data of patent US20230141603A1, “BENZODIAZEPINE DERIVATIVES AS GABA A GAMMA1 PAM” (Hoffmann-La Roche Inc., priority 2021, published 2023).

The assay addresses T1, h-GABAA α1β2γ1 (Homo sapiens, UniProt P14867+Q8N1C3).
T1 construct: expressed in transfected cells; host or cells: HEK293F cells (ThermoFisher R79007), membranes
T1 sequence (P14867 28-456): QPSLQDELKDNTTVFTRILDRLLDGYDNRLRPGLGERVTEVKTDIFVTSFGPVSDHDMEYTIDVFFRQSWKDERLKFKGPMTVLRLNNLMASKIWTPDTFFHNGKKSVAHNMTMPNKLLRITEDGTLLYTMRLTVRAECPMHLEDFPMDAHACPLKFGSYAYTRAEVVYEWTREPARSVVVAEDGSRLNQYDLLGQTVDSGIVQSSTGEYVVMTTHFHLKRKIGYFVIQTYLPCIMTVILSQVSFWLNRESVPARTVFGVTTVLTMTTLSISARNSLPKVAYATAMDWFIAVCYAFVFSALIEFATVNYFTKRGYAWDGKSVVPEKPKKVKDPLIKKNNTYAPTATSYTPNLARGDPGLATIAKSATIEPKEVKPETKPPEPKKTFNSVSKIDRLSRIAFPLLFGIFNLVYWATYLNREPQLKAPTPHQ
T1 sequence (P47870 25-512 partner limits assumed): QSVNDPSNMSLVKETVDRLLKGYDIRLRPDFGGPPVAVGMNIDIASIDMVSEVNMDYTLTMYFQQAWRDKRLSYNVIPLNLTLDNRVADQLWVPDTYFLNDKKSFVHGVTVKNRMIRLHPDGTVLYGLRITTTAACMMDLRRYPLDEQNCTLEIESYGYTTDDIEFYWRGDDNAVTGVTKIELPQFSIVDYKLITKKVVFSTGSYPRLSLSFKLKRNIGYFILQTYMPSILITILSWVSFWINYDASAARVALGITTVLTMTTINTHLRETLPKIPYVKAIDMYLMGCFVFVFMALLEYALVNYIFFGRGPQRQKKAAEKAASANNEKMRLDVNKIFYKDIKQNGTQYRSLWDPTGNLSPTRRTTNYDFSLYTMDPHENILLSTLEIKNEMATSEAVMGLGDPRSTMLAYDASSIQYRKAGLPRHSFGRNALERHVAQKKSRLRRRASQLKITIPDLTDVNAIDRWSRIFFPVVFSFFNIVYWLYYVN
T1 sequence (Q8N1C3 36-465): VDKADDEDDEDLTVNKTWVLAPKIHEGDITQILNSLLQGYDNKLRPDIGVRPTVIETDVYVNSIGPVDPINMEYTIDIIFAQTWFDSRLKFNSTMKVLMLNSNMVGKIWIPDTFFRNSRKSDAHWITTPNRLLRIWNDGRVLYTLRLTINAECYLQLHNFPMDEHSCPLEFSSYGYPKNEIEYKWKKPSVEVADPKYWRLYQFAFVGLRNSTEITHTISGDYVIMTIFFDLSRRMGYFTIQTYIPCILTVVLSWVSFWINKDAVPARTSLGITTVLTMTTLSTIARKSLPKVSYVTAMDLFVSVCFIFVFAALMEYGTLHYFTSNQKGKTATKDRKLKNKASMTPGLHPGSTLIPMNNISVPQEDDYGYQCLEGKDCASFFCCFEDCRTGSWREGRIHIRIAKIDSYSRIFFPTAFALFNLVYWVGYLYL
Description: Radioligand binding assay, [3H]RO7239181 competition, HEK293F membranes. On the procedure:
The affinity of compounds at GABAA γ1 subunit-containing receptors was measured by competition for [^3H]RO7239181 (67.3 Ci/mmol; Roche) binding to membranes from HEK293F cells (ThermoFisher R79007) expressing human (transiently transfected) receptors of composition […], α2β2γ1, α1β2γ1.
Harvested pellets from HEK293F cells expressing the different GABAA receptor subtypes were resuspended in Mannitol Buffer pH 7.2-7.4 (Mannitol 0.29M, Triethylamine 10 mM, Acetic acid 10 mM, EDTA 1 mM plus protease inhibitors (20 tablets Complete, Roche Diagnostics Cat. No. 05 056 489 001 per liter)), washed two times and then resuspended at 1:10 to 1:15 dilution in the same buffer. Cell disruption was performed by stirring the suspension in a Parr vessel #4637 at 435 psi for 15 minutes, and then the suspensions were centrifuged at 1000×g for 15 minutes at 4° C. (Beckman Avanti J-HC; rotor JS-4.2). The supernatant (S1) was transferred in a 21 Schott flask and the pellet (P1) was resuspended with Mannitol Buffer up to 175 ml. The resuspended pellet was transferred into a 250 ml Corning centrifugal beaker and centrifuged at 1500×g for 10 minutes at 4° C. (Beckman Avanti J-HC; rotor JS-4.2). The supernatant (S1) was then transferred in the 21 Schott flask and the pellet was discarded. The supernatants (S1) were centrifuged in 500 ml Beckman polypropylene centrifugal beaker at 15′000×g for 30 minutes at 4° C. (Beckman Avanti J-20 XP; rotor JLA-10.500). The pellet (P2) was resuspended with Mannitol Buffer 1:1 and frozen at −80° C. The supernatant (S2) was centrifuged in 100 ml Beckman polypropylene centrifugal tubes at 48000×g for 50 minutes at 4° C. (Beckman Avanti J-20 XP; rotor JA-18). The supernatant (S3) was discarded and the pellet (P3) was resuspended with 1:1 Mannitol Buffer. The P2 and P3 protein concentration was determined with the BIORAD Standard assay method with bovine serum albumin as standard and measured on the NANO-Drop 1000. The membrane suspension was aliquots (500 μl per tube) and stored at −80° C. until required. Membrane homogenates were resuspended and polytronised (Polytron PT1200E Kinematica AG) in Potassium Phosphate 10 mM, KCl 100 mM binding buffer at pH 7.4 to a final assay concentration determined with a previous experiment.
Assays were incubated to equilibrium for 1 hour at 4° C. and then, membranes were filtered onto unifilter (96-well white microplate with bonded GF/C filters preincubated 20-50 minutes in 0.3% Polyethylenimine) with a Filtermate 196 harvester (Packard BioScience) and washed 4 times with cold Potassium Phosphate 10 mM pH 7.4, KCl 100 mM binding buffer. After drying, filter-retained radioactivity was detected by liquid scintillation counting. Ki values were calculated using Excel-Fit (Microsoft) and are the means of two determinations.
As a reminder, the Ki is a dissociation constant, usually derived from enzyme kinetics or from competition with a known ligand. A lower Ki goes with higher affinity. Compound `Fc1ccccc1C1=NCc2nnc(C3CC3)n2-c2ccc(Br)c(Cl)c21` [Example 2, 8-bromo-7-chloro-1-cyclopropyl-6-(2-fluorophenyl)-4H-[1,2,4]triazolo[4,3-a][1,4]benzodiazepine] gave a Ki of 77.5 nM.

Regarding `Fc1cccnc1C1=NCc2nnc(-c3cccnn3)n2-c2ccc(C(F)(F)F)c(Cl)c21` [Example 72, 7-chloro-6-(3-fluoro-2-pyridyl)-1-pyridazin-3-yl-8-(trifluoromethyl)-4H-[1,2,4]triazolo[4,3-a][1,4]benzodiazepine], the Ki came to 274 nM.

Consider `Fc1cccc(F)c1C1=NCc2nncn2-c2ccc(Br)c(Cl)c21` [Example 7, 8-bromo-7-chloro-6-(2,6-difluorophenyl)-4H-[1,2,4]triazolo[4,3-a][1,4]benzodiazepine], for which the Ki is 9.1 nM.

For the compound `Clc1cccnc1C1=NCc2nnc(-c3cccnn3)n2-c2ccc(Br)c(Cl)c21` [Example 47, 8-bromo-7-chloro-6-(3-chloro-2-pyridyl)-1-pyridazin-3-yl-4H-[1,2,4]triazolo[4,3-a][1,4]benzodiazepine], the Ki was found to be 7 nM.

In turn, `Cc1ccc2c(c1Cl)C(c1c(F)cccc1F)=NCc1nncn1-2` [Example 17, 7-chloro-6-(2,6-difluorophenyl)-8-methyl-4H-[1,2,4]triazolo[4,3-a][1,4]benzodiazepine] gave a Ki of 47.7 nM.

The compound `Fc1cccnc1C1=NCc2nnc(C3CC3)n2-c2ccc(Cl)c(Cl)c21` [Example 65, 7,8-dichloro-1-cyclopropyl-6-(3-fluoro-2-pyridyl)-4H-[1,2,4]triazolo[4,3-a][1,4]benzodiazepine] registered a Ki of 110 nM.

Consider `COc1ccc2c(c1Cl)C(c1c(F)cccc1F)=NCc1nnc(-c3cccnc3)n1-2` [Example 62, 7-chloro-6-(2,6-difluorophenyl)-8-methoxy-1-(3-pyridyl)-4H-[1,2,4]triazolo[4,3-a][1,4]benzodiazepine], for which the affinity, expressed as Ki, was 161 nM.

As for `Fc1cccc(F)c1C1=NCc2nnc(-c3cccnn3)n2-c2ccc(C(F)(F)F)c(Cl)c21` [Example 38, 7-chloro-6-(2,6-difluorophenyl)-1-pyridazin-3-yl-8-(trifluoromethyl)-4H-[1,2,4]triazolo[4,3-a][1,4]benzodiazepine], the affinity corresponds to a Ki of 28 nM.

`Cc1nnc2n1-c1ccc(Cl)c(Cl)c1C(c1c(F)cccc1F)=NC2` [Example 5, 7,8-dichloro-6-(2,6-difluorophenyl)-1-methyl-4H-[1,2,4]triazolo[4,3-a][1,4]benzodiazepine] had a Ki of 8.2 nM.

`CC(F)(F)c1ccc2c(c1Cl)C(c1c(F)cccc1F)=NCc1nncn1-2` [Example 21, 7-chloro-8-(1,1-difluoroethyl)-6-(2,6-difluorophenyl)-4H-[1,2,4]triazolo[4,3-a][1,4]benzodiazepine]: the Ki came out at 90.5 nM.

In turn, `Cc1nnc2n1-c1ccc(Br)c(Cl)c1C(c1c(F)cccc1Cl)=NC2` [Example 50, 8-bromo-7-chloro-6-(2-chloro-6-fluoro-phenyl)-1-methyl-4H-[1,2,4]triazolo[4,3-a][1,4]benzodiazepine] displayed a Ki of 8.9 nM.

Consider `Cn1cc(-c2nnc3n2-c2ccc(Cl)c(Cl)c2C(c2ncccc2F)=NC3)cn1` [Example 58, 7,8-dichloro-6-(3-fluoro-2-pyridyl)-1-(1-methylpyrazol-4-yl)-4H-[1,2,4]triazolo[4,3-a][1,4]benzodiazepine], for which the affinity corresponds to a Ki of 131 nM.

Compound `O=c1[nH]nc2n1-c1ccc(Br)c(Cl)c1C(c1ccccc1F)=NC2` [Example 26, 8-bromo-7-chloro-6-(2-fluorophenyl)-2,4-dihydro-[1,2,4]triazolo[4,3-a][1,4]benzodiazepin-1-one] displayed a Ki of 24.1 nM.

The compound `Fc1cccnc1C1=NCc2nnc(-c3cccnn3)n2-c2ccc(Br)c(Cl)c21` [Example 45, 8-bromo-7-chloro-6-(3-fluoro-2-pyridyl)-1-pyridazin-3-yl-4H-[1,2,4]triazolo[4,3-a][1,4]benzodiazepine] yielded a Ki of 54.4 nM.
